Values of other authors in paper PMC10649714, “Development and Identification of Novel α-Glucosidase Inhibitory Peptides from Mulberry Leaves” (Foods, 2023).

tested on: α-glucosidase (PDB ID: 5ZCE); conditions: not given
Text: All hydrogen bonds in this complex with a length less than 3.5 Å were considered to make a close contact, and the binding energy obtained was −8.78 kcal/mol. […] Along with other interaction forces, the binding energy was −8.75 kcal/mol. In addition, […] formed seven hydrogen bonds a ...

Molecule	binding sites with α-glucosidase
C[C@@H]1O[C@@H](O[C@H]2C(=O)c3c(O)cc(O)cc3O[C@@H]2c2ccc(O)c(O)c2)[C@H](O)[C@H](O)[C@H]1O [astilbin]	ASP-60, ASP-199, HIS-203, GLN-256, and GLN-328
O=c1c(O)c(-c2ccc(O)cc2O)oc2cc(O)cc(O)c12 [morin]	ASP-60, ASP-199, HIS-203, GLN-256, and GLN-328
O=C(CCc1ccc(O)cc1)c1c(O)cc(O[C@@H]2O[C@H](CO)[C@@H](O)[C@H](O)[C@H]2O)cc1O [trilobatin]	ASP-60, ASP-199, HIS-203, GLN-256, and GLN-328

molecular target: α-glucosidase (Saccharomyces cerevisiae, UniProt P53341); conditions: Binglangjiang buffalo casein peptides
Sequence (P53341 whole entry, the tested form may be a part): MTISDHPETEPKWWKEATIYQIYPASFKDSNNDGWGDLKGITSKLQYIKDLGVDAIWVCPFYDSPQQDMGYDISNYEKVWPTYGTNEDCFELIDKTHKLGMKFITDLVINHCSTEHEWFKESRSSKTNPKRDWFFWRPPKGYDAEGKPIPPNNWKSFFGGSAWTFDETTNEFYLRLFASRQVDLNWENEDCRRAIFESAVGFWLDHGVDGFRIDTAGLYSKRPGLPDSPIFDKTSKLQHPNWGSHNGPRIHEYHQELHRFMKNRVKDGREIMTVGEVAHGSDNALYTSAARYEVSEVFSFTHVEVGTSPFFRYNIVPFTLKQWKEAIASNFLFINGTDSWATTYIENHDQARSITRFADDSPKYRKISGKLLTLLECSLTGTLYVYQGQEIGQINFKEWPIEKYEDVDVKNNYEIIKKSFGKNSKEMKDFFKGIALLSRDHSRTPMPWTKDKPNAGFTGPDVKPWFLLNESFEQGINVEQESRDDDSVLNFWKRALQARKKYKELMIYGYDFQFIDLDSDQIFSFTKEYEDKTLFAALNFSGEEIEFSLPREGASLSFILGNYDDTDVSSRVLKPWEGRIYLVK
Text: Bioactive peptides are composed of 2–20 amino acids. These peptides have no obvious activity in the macromolecular state but show anti-diabetes, anti-hypertension, anti-inflammation, anti-cancer, and other biological activities after degradation. Enzymatic hydrolysis is commonly employed in both research and industrial settings for the preparation of bioactive peptides due to its favorable attributes, including gentle reaction conditions and the ability to effectively regulate the reaction process. […] Although the precise chemical responsible for this benefit is unknown, the ancient Chinese medicinal book Qi Min Yao Shu referenced the effect of mulberry leaf as tr ... || To further verify the synthesis of peptides, in vitro activity tests were carried out. […] […].

IC50 ratio of peptide to acarbose	Molecule
approximately 2.5	FALPQYLK [Binglangjiang buffalo casein peptide]
approximately 2.5	RNAVPITPTLNR [Binglangjiang buffalo casein peptide]
approximately 2.5	TKVIPYVRYL [Binglangjiang buffalo casein peptide]
approximately 2.5	YLGYLEQLLR [Binglangjiang buffalo casein peptide]

same assay, conditions: Ginkgo biloba seed protein peptides

IC50 ratio of peptide to acarbose	Molecule
1.22	LSMSFPPF [peptide from Ginkgo biloba seed protein]
2.54	MPGPPSD [peptide from Ginkgo biloba seed protein]
3.89	VPKIPPP [peptide from Ginkgo biloba seed protein]

same assay, conditions: in words; ref 9 (LDLQR, AGGFR, LDNFR), 11 (RVPSLM, KLPGF), ref 12 (SEDSSEVDIDLGNLG), ref 13 (TTGGKGGK), ref 14 (KETTTIVR)

α-glucosidase inhibition in vitro	Molecule
excellent	AGGFR [wheat germ peptide]
excellent	KETTTIVR [spicy wood seed protein-derived peptide]
excellent	KLPGF [egg white protein-derived peptide]
excellent	LDLQR [wheat germ peptide]
excellent	LDNFR [wheat germ peptide]
excellent	RVPSLM [egg white protein-derived peptide]
excellent	TTGGKGGK [black bean protein-derived peptide]

Molecule	α-glucosidase inhibition in vitro
SEDSSEVDIDLGNLG [sericin-derived peptide]	excellent

same assay, conditions: wheat germ peptides

IC50 ratio of peptide to acarbose	Molecule
2.54	AGGFR [wheat germ peptide]
2.52	LDLQR [wheat germ peptide]
2.70	LDNFR [wheat germ peptide]
